{"source": "patent US20100178243A1", "about": "“Novel method of stabilizing diagnostic and therapeutic compounds in a cationic carrier system” (MediGene AG, priority 2002, published 2010)", "key": {"[1]": {"test": "Chemical stability of succinyl paclitaxel in aqueous solution (HPLC, paclitaxel release)", "format": "physicochemical", "details": "for paclitaxel release: 4° C., 0.1 mM Tris-buffered"}, "[2]": {"test_system": "A-375", "test": "MTT cell viability assay, 72 h", "format": "cell-based", "details": "Homo sapiens", "experimental": "(§1) A-375 ([…]) and Ea.Hy cells ([…]) is seeded at a constant density (2×10^4/cm^2) in 24-well plates and cultivated over night at conditions of 5-5.5% CO2, 37° C. and ˜90% humidity. At day 1, cell culture medium is replaced by a mixture of fresh medium and a series of 11 consecutive drug dilutions is added to each well (duplicates) to cover a range between 0.1 and 1000 nM final drug concentration. After 72 h, the cell viability in each well is determined by measuring the activity of mitochondrial dehydrogenases (MTT assay). In viable cells the MTT substrate is converted to a blue, cell impermeable dye (Formazan). After 1 h the medium is removed, cells are lysed with isopropanol/0.04% HCl and the amount of the blue Formazan given as optical density at a wavelength of 550 nm (OD550 nm) quantitated in an ELISA reader. The experiment is evaluated using the Sigma Plot analysis software by plotting the mean OD550 nm value against the respective drug concentration. A best fit curve is calculated based on a double-sigmoid assumption algorithm and the IC50 value is determined according to this best fit curve with the following result: […]"}, "[3]": {"test_system": "Ea.Hy cells", "test": "MTT cell viability assay, 72 h", "format": "cell-based", "details": "Homo sapiens", "experimental": "as §1"}, "[4]": {"test_system": "A-375 Melanoma", "test": "Treatment of A-375 melanoma in NMRI nude mice with Taxol and SuccTXL cationic liposomes", "format": "in vivo", "details": "iv, three times a week for three weeks, equitoxic doses; s.c. A-375 tumors; FIG. 9", "experimental": "NMRI-nude mice from Elevage Janvier and housed in isolated ventilated cages under save environmental conditions (SPF facility, 22° C., 30-70% humidity, 12 h light/dark cycle) with food and water ad libitum. Experimental design was reviewed and approved by local government.\nTumor cells (A-375 human melanoma cell line, ATCC Nr.: CRL-1619) were grown as described in the data sheet supplied by ATCC. Tumor cells (5×10^6 in PBS) were inoculated s.c. in the right dorsal flank of mice in a volume of 50 μl on day 0.\nMice were assigned to the experimental groups (8 animals per cage), housed and handled (including monitoring of the body weight gain) at least five days before tumor inoculation (=day −6 to 0). Drug treatment begins after the tumors reached a volume of approximately 100 mm^3. […] Equitoxic doses of the compounds were determined in separate experiments, where toxicity was evaluated based on haematological parameters, body weight and animal clinical observations. […]\nAnimals were clinically monitored during the whole experiment and for at least one week after treatment was finished. […] The tumor dimensions were measured by calliper and the tumor size was calculated according to the following formula: V=πLW^2/6 (L=greatest length, W=width of perpendicular axis). […] The number of red and white blood cells and platelets were determined using an automated cell counter (Abbott Cell Dyn 3500)."}, "[5]": {"test": "Diafiltration: retention of fluorescein dyes in liposome suspension (direct loading)", "format": "physicochemical", "details": "for Conc. marker after diafiltration: 25 mM", "source_text": "Liposomes may be formed by the well-known film method, such as described in the literature.[1] Briefly, from the organic solution of the lipid, or the lipid plus the drug, the solvent is evaporated, and a thin film of lipid (or lipid plus drug) is formed at the inner wall of a flask. The thin molecular film is resuspended in an aqueous phase, which contains the dye, and which may contain further components such as buffers, ions, cryoprotectants, etc. A typical formulation consists of a suspension of 25 mM DOTAP/DOPC 1:1, which is resuspended by a 5 mM solution of the dye.\n(§2) As an example, in table 1 the results from some experiments are given. For comparison as well a formulation with anionic lipids was performed. For the anionic liposomes, most of the dye is lost during diafiltration, while for the cationic liposomes a large molar fraction of the dye remains immobilized in the lioposme suspension. […] For the CF experiments a lower bulk concentration of the dye was selected, because in that case binding is so strong, that for higher concentrations the liposomes will be destabilized due to the sterical hindrance by the CF molecules. The fraction of dye which was found immobilized in the suspensions from cationic liposomes was much higher that for the (anionic) DOPG containing liposomes. A band shift (λ max) in the absorption spectrum was observed, which increased as AF<F<CF, indication increasing binding strength. On the contrary, for the DOPG liposomes, no shift of the absorption maximum occurred. This can be seen most clearly in FIG. 1, where the complete spectra for the free and the liposomal dyes are depicted.\nSeparation of low molecular compounds from the liposomal suspensions Diafiltration techniques were used to separate low molecular components from the liposomal suspensions. For the above described 15 mM DOTAP/DOPC 1:1 formulations with 5 mM dye in the aqueous phase, ca. 50% of the dye was retained in the liposome suspension for AF, and 60% was retained for F. With 0.5 mM of CF, virtually 100% of the dye was retained in the solution (the amount of released dye was monitored by UV-vis)spectroscopy."}, "[6]": {"test": "UV-vis absorption maximum (band shift) of liposome-associated fluorescein dyes", "format": "physicochemical", "details": "25 mM", "experimental": "as §2, with “depicted. All stages of formulation are monitored by HPLC analysis (lipid and drug) and by UV-vis spectroscopy. In HPLC analysis a slight loss of material after extrusion may be observed. UV-vis spectroscopy serves as a qualitative means in order to control formulation efficacy. The UV-vis spectra of the dye are shifted on binding to the lipid. The band shift is a function of the binding constant and the fraction of lipid bound and free dye can be estimated by UV-vis spectroscopy.” for “depicted.”"}, "[7]": {"test": "Remote loading of DOTAP/DOPC liposomes with AF, dialysis and UV-vis", "format": "physicochemical", "details": "remote loading: 25 mM DOTAP/DOPC liposomes mixed with equal volume of 5 mM AF", "experimental": "The association of the dye to the liposomes can be performed as well to an already prepared formulation, by simply mixing the dye solution with the liposome suspension. […] The efficacy of the loading can be determined by diafiltration and by UV-vis and fluorescence spectroscopy of the suspension. As an example the results from remote loading of DOTAP/DOPC liposomes with AF (the most weakly binding fluorescein variety) are given. A 25 mM suspension of the pure lipid liposomes was prepared by the standard procedure. Then a 5 mM solution of AF was added to the suspension (equal volumina). Subsequently the suspension was dialyzed in order to remove the free dye. The dye content in the solution was controlled by UV-vis spectroscopy. In FIG. 2, the spectra after mixing, after dialysis, and after addition of triton are shown. The triton was added in order to destroy the liposomes and the release the lipid-bound dye."}, "[8]": {"test": "Gel filtration (Microspin S-300 HR) separation of non-associated patent blue from liposomes", "format": "physicochemical", "details": "50 μl loaded on Microspin S-300 HR", "experimental": "Gel filtration is employed to separate the dye (MW<1000 Da) from the colloidal liposome. The free dye is retained in the pores of the column, the liposomes are so large that they elute without retention in the void volume. It is expected that in a liposomal formulation with a lipid concentration of 10 mM approximately 2% of the aqueous phase is entrapped in the liposomes, 98% are not entrapped (Liposomes a practical approach, Ed. R. R. C. New, IRL Press, Oxford 1990). This amount of dye is to be separated from the liposome by gel filtration.\nA Microspin™ S-300 HR column (Amersham) was pre-equilibrated as required in the product description and loaded with 50 μl of the neutral liposomal formulation C. The goal was to investigate whether patent blue not associated with the liposomes can be separated from the liposomal fraction as described in the literature (Reynolds, J. A.; Nozaki, Y.; Tanford, C. Gel-exclusion chromatography on S1000 Sephacryl: application to phospholipid vesicles. Anal Biochem 1983, 130 (2), 471-474.) The majority of the dye was retained on the column, a slightly blue solution eluted (liposomes with associated dye; about 2% as estimated by UV spectroscopy). This illustrates that for neutral liposomes we can apply well-established separation protocols to separate un-associated material. […]"}, "[9]": {"test": "Liposomal fluoride concentration after dialysis (ion chromatography)", "format": "physicochemical", "details": "rehydrated with 150 mM sodium fluoride, 3 dialysis steps", "experimental": "The lipids (either 10 mM DOTAP or 10 mM DOPC) are dissolved in chloroform and the solution is transferred into a round bottom flask. The organic solvent is evaporated under reduced pressure forming a clear lipid film on the flask's surface. This film is dried at 40° C. under vacuum (3 to 5 mbar) for about 60 minutes. Then, the film is rehydrated with the appropriate volume of an aqueous 150 mM sodium fluoride solution resulting in a liposomal solution. The next day, the liposomal solution is extruded 5 times through a 200 nm membrane. The size of the liposomes is determined by PCS (Zetasizer 1000 and 3000, Malvern Instruments). The fluoride that is not associated with the liposomes is removed by 3 successive dialysis steps (8 hours, Pierce, Slide-A-Lyzer dialysis cassette; 10000 molecular weight cut off) and the liposomal fluoride concentration is established by ion chromatography. For cationic 10 mM DOTAP liposomes the fluoride concentration is 1.3 mM, whereas the fluoride ion concentration is about 4 times lower for neutral 10 mM DOPC liposomes (0.3 mM fluoride). The far lower fluoride ion concentration of neutral liposomes is explained by the attractive forces of cationic lipids interacting with the negatively charged halide anion."}}, "data": [{"molecule": "CC(=O)O[C@H]1C(=O)[C@@]2(C)C([C@H](OC(=O)c3ccccc3)[C@]3(O)C[C@H](OC(=O)C(OC(=O)CCC(=O)O)C(NC(=O)c4ccccc4)c4ccccc4)C(C)=C1C3(C)C)[C@]1(OC(C)=O)CO[C@@H]1C[C@@H]2O", "note": "(stereo partly drawn) [succinyl paclitaxel]", "values": [{"measurement": "paclitaxel release", "setting": "[1]; pH 5, after 9 days", "value": 4, "unit": "%"}, {"measurement": "paclitaxel release", "setting": "[1]; pH 7, after 9 days", "value": 4, "unit": "%"}, {"measurement": "paclitaxel release", "setting": "[1]; pH 9, after 9 days", "value": 70, "unit": "%"}, {"measurement": "paclitaxel release (in words)", "setting": "[1]; 40° C., all pH values (5, 7, 9), within 56 hours", "value": "intensive release of paclitaxel"}, {"measurement": "IC50", "setting": "[2]", "value": 10, "unit": "nM"}, {"measurement": "IC50", "setting": "[3]", "value": 17, "unit": "nM"}]}, {"molecule": "CC(=O)O[C@H]1C(=O)[C@@]2(C)[C@H]([C@H](OC(=O)c3ccccc3)[C@]3(O)C[C@H](OC(=O)[C@H](O)[C@@H](NC(=O)c4ccccc4)c4ccccc4)C(C)=C1C3(C)C)[C@]1(OC(C)=O)CO[C@@H]1C[C@@H]2O", "note": "[Taxol ®, Paclitaxel]", "values": [{"measurement": "IC50", "setting": "[2]", "value": 2, "unit": "nM"}, {"measurement": "IC50", "setting": "[3]", "value": 3, "unit": "nM"}, {"measurement": "tumor growth rate (in words)", "setting": "[4]", "value": "reduced the tumor growth only to a limited extent"}]}, {"molecule": "Nc1ccc(-c2c3ccc(=O)cc-3oc3cc(O)ccc23)c(C(=O)O)c1", "note": "[AF, aminofluorescein]", "values": [{"measurement": "dye retained in the liposome suspension after diafiltration", "setting": "[5]; 15 mM DOTAP/DOPC 1:1, 5 mM dye in the aqueous phase", "value": "ca. 50%"}, {"measurement": "Conc. marker after diafiltration", "setting": "[5]; DOTAP/DOPC 50/50 liposomes, conc. before diafiltration […]", "value": 800, "unit": "µg/mL"}, {"measurement": "λ max", "setting": "[6]; DOTAP/DOPC 50/50 liposomes", "value": 497.6, "unit": "nm"}, {"measurement": "dye remained bound to the liposomes after dialysis", "setting": "[7]", "value": "ca. 50%"}]}, {"molecule": "CCN(CC)c1ccc(C(=C2C=CC(=[N+](CC)CC)C=C2)c2cc(O)c(S(=O)(=O)O)cc2S(=O)(=O)O)cc1", "note": "[PB, Patent blue]", "values": [{"measurement": "separation of dye from liposomes on gel filtration column (in words)", "setting": "[8]", "value": "trapped in the pores of the column material"}]}, {"molecule": "[F-].[Na+]", "note": "[fluoride, sodium fluoride]", "values": [{"measurement": "liposomal fluoride concentration", "setting": "[9]; cationic 10 mM DOTAP liposomes", "value": 1.3, "unit": "mM"}, {"measurement": "liposomal fluoride concentration", "setting": "[9]; neutral 10 mM DOPC liposomes", "value": 0.3, "unit": "mM"}]}, {"molecule": "carboxy-fluorescein [CF]", "values": [{"measurement": "dye retained in the liposome suspension after diafiltration", "setting": "[5]; 15 mM DOTAP/DOPC 1:1, 0.5 mM of CF", "value": "~100", "unit": "%"}, {"measurement": "Conc. marker after diafiltration", "setting": "[5]; DOPG/DOPC 95/5 (anionic) liposomes, conc. before diafiltration 1.9 mg/ml", "value": 120, "unit": "µg/mL"}, {"measurement": "Conc. marker after diafiltration", "setting": "[5]; DOTAP/DOPC 50/50 liposomes, conc. before diafiltration 0.19 mg/ml", "value": 190, "unit": "µg/mL"}, {"measurement": "λ max", "setting": "[6]; DOPG/DOPC 95/5 liposomes", "value": 492.6, "unit": "nm"}, {"measurement": "λ max", "setting": "[6]; DOTAP/DOPC 50/50 liposomes", "value": 506, "unit": "nm"}]}]}
